{"source": "paper PMC5560747", "about": "“Computational-experimental approach to drug-target interaction mapping: A case study on kinase inhibitors” (PLoS Computational Biology, 2017)", "key": {"JAK3": {"molecular_target": "JAK3 (Homo sapiens, UniProt P52333)", "sequence (P52333 whole entry)": "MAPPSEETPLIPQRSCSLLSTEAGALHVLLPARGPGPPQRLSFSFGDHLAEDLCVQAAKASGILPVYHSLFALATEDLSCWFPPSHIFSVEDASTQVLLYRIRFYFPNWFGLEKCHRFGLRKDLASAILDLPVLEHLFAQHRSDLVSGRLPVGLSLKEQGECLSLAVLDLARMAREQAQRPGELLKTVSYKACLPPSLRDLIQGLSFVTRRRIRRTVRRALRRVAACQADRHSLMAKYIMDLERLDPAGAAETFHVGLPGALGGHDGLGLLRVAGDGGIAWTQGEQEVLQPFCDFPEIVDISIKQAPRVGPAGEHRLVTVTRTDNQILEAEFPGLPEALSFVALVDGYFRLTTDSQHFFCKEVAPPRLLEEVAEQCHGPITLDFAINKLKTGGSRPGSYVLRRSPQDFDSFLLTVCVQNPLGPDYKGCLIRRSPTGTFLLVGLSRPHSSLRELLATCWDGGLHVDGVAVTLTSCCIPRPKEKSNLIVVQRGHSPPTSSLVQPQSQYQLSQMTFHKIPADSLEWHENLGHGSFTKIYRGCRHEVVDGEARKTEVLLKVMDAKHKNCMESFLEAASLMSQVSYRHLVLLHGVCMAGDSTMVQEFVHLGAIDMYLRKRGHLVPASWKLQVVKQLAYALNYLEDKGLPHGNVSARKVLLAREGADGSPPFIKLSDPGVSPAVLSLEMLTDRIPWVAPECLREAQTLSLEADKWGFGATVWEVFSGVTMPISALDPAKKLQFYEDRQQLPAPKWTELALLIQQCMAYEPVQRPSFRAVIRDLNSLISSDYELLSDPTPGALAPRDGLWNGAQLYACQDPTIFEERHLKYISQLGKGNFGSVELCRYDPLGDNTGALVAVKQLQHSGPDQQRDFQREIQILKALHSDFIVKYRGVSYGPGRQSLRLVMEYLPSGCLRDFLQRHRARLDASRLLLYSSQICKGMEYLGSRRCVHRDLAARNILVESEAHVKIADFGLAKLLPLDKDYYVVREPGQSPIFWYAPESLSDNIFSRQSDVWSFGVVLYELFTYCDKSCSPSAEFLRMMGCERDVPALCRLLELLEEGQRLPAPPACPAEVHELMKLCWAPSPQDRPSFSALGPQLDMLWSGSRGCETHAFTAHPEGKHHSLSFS", "set-up": "method as in Gao et al. [42]", "conditions": "ref Gao et al. [42], cited from earlier work"}, "RPS6KB1": {"molecular_target": "T1, RPS6KB1 (Homo sapiens, UniProt P23443)", "T1 construct": "purchased SignalChem R21-10H-10", "T1 sequence (P23443 whole entry)": "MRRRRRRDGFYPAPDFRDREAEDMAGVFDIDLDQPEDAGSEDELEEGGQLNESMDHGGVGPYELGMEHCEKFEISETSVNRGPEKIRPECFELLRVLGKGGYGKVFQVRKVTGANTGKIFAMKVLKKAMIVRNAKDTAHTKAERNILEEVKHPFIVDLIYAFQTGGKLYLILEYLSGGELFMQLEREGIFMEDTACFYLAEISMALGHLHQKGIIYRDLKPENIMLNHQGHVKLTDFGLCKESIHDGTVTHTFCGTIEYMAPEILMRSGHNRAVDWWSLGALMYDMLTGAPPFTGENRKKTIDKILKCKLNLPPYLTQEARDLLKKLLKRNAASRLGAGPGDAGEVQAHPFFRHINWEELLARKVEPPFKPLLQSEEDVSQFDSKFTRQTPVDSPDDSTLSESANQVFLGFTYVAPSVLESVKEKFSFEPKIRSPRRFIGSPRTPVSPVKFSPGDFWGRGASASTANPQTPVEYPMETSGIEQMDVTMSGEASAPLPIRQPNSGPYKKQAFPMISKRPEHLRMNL", "assay": "ADP-Glo Kinase Assay, tivozanib off-target testing", "assay_type": "biochemical", "conditions": "read-out: Experimental validation pIC50 (converted)", "procedure": "The kinase inhibitors were dissolved to 1X Kinase Buffer with 5% DMSO by transferring 200nL of the buffer using ECHO525 Liquid handler (Labcyte). […] The dissolved kinases and 2.5X kinase buffer controls were transferred at 400nL using ECHO525. […] The 2.5X ATP/substrate working stocks were transferred at 400nL using ECHO525.\nFor the ADP detection, 1 μl ADP-Glo reagent was dispensed (Thermo Scientific Multidrop Combi nL). […] Next, 2 μl kinase detection reagent was dispensed with Thermo Scientific Multidrop Combi nL.\nKinase assay, kinase dilution and substrate buffers were as indicated by the manufacturer (Promega). The assays were performed in the same way as with the kinases from the Kinase Selectivity Profiling System + ADP-Glo Assay kits (see previous section). All the assays were done in three individual experiments, each having three replicates.\nIC50 values from all the experiments were obtained with GraphPad Prism 7 (GraphPad Software, Inc. California, USA) using inhibitor vs. response—variable slope (four parameters) analysis. […] X-axis scale was set to log10."}, "CSNK1G1": {"tested_on": "CSNK1G1", "set-up": "method as in Gao et al. [42]", "conditions": "ref Gao et al. [42], cited from earlier work"}, "FAK": {"molecular_target": "FAK (Homo sapiens, UniProt Q05397)", "sequence (Q05397 whole entry)": "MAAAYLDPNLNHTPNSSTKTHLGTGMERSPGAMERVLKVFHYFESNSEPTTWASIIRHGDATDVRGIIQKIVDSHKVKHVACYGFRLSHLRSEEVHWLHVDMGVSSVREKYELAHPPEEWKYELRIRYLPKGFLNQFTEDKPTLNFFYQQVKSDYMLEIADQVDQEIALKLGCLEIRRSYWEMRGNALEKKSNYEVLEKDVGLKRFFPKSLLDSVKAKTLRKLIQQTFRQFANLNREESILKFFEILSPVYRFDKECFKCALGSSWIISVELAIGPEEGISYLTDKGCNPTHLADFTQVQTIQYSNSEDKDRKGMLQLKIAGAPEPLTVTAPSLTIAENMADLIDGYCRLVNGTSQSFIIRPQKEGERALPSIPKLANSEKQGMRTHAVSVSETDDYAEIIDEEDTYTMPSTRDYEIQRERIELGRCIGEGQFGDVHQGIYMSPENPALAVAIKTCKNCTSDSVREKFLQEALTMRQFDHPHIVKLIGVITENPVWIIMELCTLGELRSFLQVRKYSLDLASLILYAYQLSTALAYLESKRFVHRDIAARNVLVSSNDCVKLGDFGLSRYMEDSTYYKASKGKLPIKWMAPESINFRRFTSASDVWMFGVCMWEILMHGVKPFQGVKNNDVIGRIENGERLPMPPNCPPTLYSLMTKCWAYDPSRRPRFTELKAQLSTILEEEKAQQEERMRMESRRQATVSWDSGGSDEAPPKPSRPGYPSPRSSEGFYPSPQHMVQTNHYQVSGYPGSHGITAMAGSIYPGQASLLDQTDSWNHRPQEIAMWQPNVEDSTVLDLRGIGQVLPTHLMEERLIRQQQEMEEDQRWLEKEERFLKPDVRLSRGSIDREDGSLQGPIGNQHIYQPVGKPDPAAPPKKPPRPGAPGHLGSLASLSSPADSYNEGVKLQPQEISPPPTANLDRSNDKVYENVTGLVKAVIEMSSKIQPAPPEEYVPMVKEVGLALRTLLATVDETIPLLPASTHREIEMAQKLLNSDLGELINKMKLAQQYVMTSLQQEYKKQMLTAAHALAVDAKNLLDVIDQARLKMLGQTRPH", "set-up": "method as in Gao et al. [42]", "conditions": "ref Gao et al. [42]; cited from earlier work"}, "CDC42BPA": {"tested_on": "CDC42BPA", "set-up": "method as in Gao et al. [42]", "conditions": "ref Gao et al. [42], cited from earlier work"}, "AKT2": {"tested_on": "AKT2", "set-up": "method as in Gao et al. [42]", "conditions": "ref Gao et al. [42], cited from earlier work"}, "CSNK1G2": {"tested_on": "CSNK1G2", "set-up": "method as in Gao et al. [42]", "conditions": "ref Gao et al. [42], cited from earlier work"}, "CAMK2B": {"tested_on": "CAMK2B", "set-up": "method as in Gao et al. [42]", "conditions": "ref Gao et al. [42], cited from earlier work"}, "IKKb": {"tested_on": "IKKb", "set-up": "method as in Gao et al. [42]", "conditions": "ref Gao et al. [42], cited from earlier work"}, "IRAK1": {"tested_on": "IRAK1", "set-up": "method as in Gao et al. [42]", "conditions": "ref Gao et al. [42], cited from earlier work"}, "PYK2": {"molecular_target": "PYK2 (Homo sapiens, UniProt Q14289)", "sequence (Q14289 whole entry)": "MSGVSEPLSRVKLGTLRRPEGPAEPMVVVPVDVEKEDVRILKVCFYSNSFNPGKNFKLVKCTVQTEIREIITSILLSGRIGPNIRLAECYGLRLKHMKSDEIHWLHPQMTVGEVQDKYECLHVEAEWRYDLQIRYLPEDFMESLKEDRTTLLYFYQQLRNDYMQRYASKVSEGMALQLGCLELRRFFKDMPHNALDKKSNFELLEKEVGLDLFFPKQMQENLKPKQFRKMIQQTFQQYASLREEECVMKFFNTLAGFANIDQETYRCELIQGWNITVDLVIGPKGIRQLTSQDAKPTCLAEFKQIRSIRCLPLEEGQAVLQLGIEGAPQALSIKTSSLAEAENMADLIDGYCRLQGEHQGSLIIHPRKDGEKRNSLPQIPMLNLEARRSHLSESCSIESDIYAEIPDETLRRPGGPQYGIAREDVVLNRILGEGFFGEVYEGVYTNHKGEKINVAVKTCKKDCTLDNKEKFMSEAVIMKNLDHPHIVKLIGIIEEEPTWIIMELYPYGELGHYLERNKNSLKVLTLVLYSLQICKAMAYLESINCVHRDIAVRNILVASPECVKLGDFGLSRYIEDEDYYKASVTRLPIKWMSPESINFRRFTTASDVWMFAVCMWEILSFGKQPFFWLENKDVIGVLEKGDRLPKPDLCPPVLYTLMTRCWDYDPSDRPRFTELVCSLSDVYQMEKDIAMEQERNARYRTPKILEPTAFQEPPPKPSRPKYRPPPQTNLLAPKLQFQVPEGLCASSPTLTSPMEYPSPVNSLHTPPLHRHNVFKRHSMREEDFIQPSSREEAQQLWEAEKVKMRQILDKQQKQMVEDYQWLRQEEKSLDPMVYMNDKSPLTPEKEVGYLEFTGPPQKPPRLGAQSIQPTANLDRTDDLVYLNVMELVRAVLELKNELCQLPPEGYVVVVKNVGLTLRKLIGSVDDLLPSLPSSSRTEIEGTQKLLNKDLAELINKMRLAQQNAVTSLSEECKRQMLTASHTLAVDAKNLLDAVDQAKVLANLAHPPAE", "set-up": "method as in Gao et al. [42]", "conditions": "ref Gao et al. [42], cited from earlier work"}, "PLK3": {"tested_on": "PLK3", "set-up": "method as in Gao et al. [42]", "conditions": "ref Gao et al. [42], cited from earlier work"}, "TSSK1B": {"tested_on": "TSSK1B", "set-up": "method as in Gao et al. [42]", "conditions": "ref Gao et al. [42], cited from earlier work"}, "HIPK2": {"tested_on": "HIPK2", "set-up": "method as in Gao et al. [42]", "conditions": "ref Gao et al. [42], cited from earlier work"}}, "data": [{"molecule": "COc1cc2nccc(Oc3ccc(NC(=O)Nc4cc(C)on4)c(Cl)c3)c2cc1OC", "note": "[TIVOZANIB, Tivozanib]", "values": [{"measurement": "Gao et al. % of activity remaining at 1 µM", "setting": "JAK3; 1 µM", "result": 100, "unit": "%"}, {"measurement": "Gao et al. % of activity remaining at 10 µM", "setting": "JAK3; 10 µM", "result": 48, "unit": "%"}, {"measurement": "IC50", "setting": "RPS6KB1", "result": "> 12.5", "unit": "µM"}, {"measurement": "Gao et al. % of activity remaining at 1 µM", "setting": "CSNK1G1; 1 µM", "result": 89, "unit": "%"}, {"measurement": "Gao et al. % of activity remaining at 10 µM", "setting": "CSNK1G1; 10 µM", "result": 57, "unit": "%"}, {"measurement": "Gao et al. % of activity remaining at 10 µM", "setting": "FAK", "result": 35, "unit": "%"}, {"measurement": "Gao et al. % of activity remaining at 1 µM", "setting": "CDC42BPA; 1 µM", "result": 116, "unit": "%"}, {"measurement": "Gao et al. % of activity remaining at 10 µM", "setting": "CDC42BPA; 10 µM", "result": 102, "unit": "%"}, {"measurement": "Gao et al. % of activity remaining at 1 µM", "setting": "AKT2; 1 µM", "result": 105, "unit": "%"}, {"measurement": "Gao et al. % of activity remaining at 10 µM", "setting": "AKT2; 10 µM", "result": 89, "unit": "%"}, {"measurement": "Gao et al. % of activity remaining at 1 µM", "setting": "CSNK1G2; 1 µM", "result": 80, "unit": "%"}, {"measurement": "Gao et al. % of activity remaining at 10 µM", "setting": "CSNK1G2; 10 µM", "result": 73, "unit": "%"}, {"measurement": "Gao et al. % of activity remaining at 1 µM", "setting": "CAMK2B; 1 µM", "result": 97, "unit": "%"}, {"measurement": "Gao et al. % of activity remaining at 10 µM", "setting": "CAMK2B; 10 µM", "result": 69, "unit": "%"}, {"measurement": "Gao et al. % of activity remaining at 1 µM", "setting": "IKKb; 1 µM", "result": 104, "unit": "%"}, {"measurement": "Gao et al. % of activity remaining at 10 µM", "setting": "IKKb; 10 µM", "result": 102, "unit": "%"}, {"measurement": "Gao et al. % of activity remaining at 1 µM", "setting": "IRAK1; 1 µM", "result": 82, "unit": "%"}, {"measurement": "Gao et al. % of activity remaining at 10 µM", "setting": "IRAK1; 10 µM", "result": 92, "unit": "%"}, {"measurement": "Gao et al. % of activity remaining at 1 µM", "setting": "PYK2; 1 µM", "result": 34, "unit": "%"}, {"measurement": "Gao et al. % of activity remaining at 10 µM", "setting": "PYK2; 10 µM", "result": 8, "unit": "%"}, {"measurement": "Gao et al. % of activity remaining at 1 µM", "setting": "PLK3; 1 µM", "result": 85, "unit": "%"}, {"measurement": "Gao et al. % of activity remaining at 10 µM", "setting": "PLK3; 10 µM", "result": 87, "unit": "%"}, {"measurement": "Gao et al. % of activity remaining at 1 µM", "setting": "TSSK1B; 1 µM", "result": 94, "unit": "%"}, {"measurement": "Gao et al. % of activity remaining at 10 µM", "setting": "TSSK1B; 10 µM", "result": 82, "unit": "%"}, {"measurement": "Gao et al. % of activity remaining at 1 µM", "setting": "HIPK2; 1 µM", "result": 94, "unit": "%"}, {"measurement": "Gao et al. % of activity remaining at 10 µM", "setting": "HIPK2; 10 µM", "result": 81, "unit": "%"}]}]}
